In the NIST ThermoML archive (doi:10.1016/j.jct.2007.03.012):

Experiment: xn = mol fraction of the nth substance listed
Details: Liquid, Bellows volumetry

CC(C)C [2-methylpropane] + CCC
mass density [kg/m3]
Details | 360 K | 380 K | 400 K | 420 K | 440 K
5000 kPa, x2 = 0.2765 | – | – | 353.34 | – | –
5000 kPa, x2 = 0.5052 | – | 390.11 | – | – | –
10000 kPa, x2 = 0.2765 | – | – | 418.11 | – | –
10000 kPa, x2 = 0.5052 | – | 433.73 | 396.98 | 353.95 | –
10000 kPa, x2 = 0.7468 | – | – | 370.08 | – | –
20000 kPa, x2 = 0.2765 | – | – | 464.84 | – | 418.57
20000 kPa, x2 = 0.5052 | – | 473.66 | 450.18 | 426.22 | 401.72
20000 kPa, x2 = 0.7468 | 481.36 | – | 432.58 | – | 381.56
30000 kPa, x2 = 0.2765 | 528.67 | – | 491.48 | – | 455.11
30000 kPa, x2 = 0.5052 | 517.29 | 498.04 | 478.86 | 459.76 | 441.26
30000 kPa, x2 = 0.7468 | 503.41 | – | 463.78 | – | 424.79
40000 kPa, x2 = 0.2765 | 543.99 | – | 510.96 | – | 479.61
40000 kPa, x2 = 0.5052 | 533.27 | 516.11 | 499.19 | 482.81 | 467.04
40000 kPa, x2 = 0.7468 | 520.23 | – | 485.32 | – | 452.26
50000 kPa, x2 = 0.2765 | 556.8 | – | 526.54 | – | 498.3
50000 kPa, x2 = 0.5052 | 546.45 | 530.72 | 515.41 | 500.59 | 486.62
50000 kPa, x2 = 0.7468 | 534.15 | – | 502.4 | – | 472.75
60000 kPa, x2 = 0.2765 | 567.78 | – | 539.61 | – | 513.76
60000 kPa, x2 = 0.5052 | 557.79 | 543.03 | 528.8 | 515.22 | 502.39
60000 kPa, x2 = 0.7468 | 545.73 | – | 516.38 | – | 489.17
70000 kPa, x2 = 0.2765 | 577.53 | – | 550.88 | – | 526.7
70000 kPa, x2 = 0.5052 | 567.64 | 553.8 | 540.38 | 527.71 | 515.83
70000 kPa, x2 = 0.7468 | 555.96 | – | 528.32 | – | 503.08
80000 kPa, x2 = 0.2765 | 586.26 | – | 560.85 | – | 538.18
80000 kPa, x2 = 0.5052 | 576.76 | 563.25 | 550.76 | 538.65 | 527.49
80000 kPa, x2 = 0.7468 | 565.01 | – | 538.83 | – | 515.14
90000 kPa, x2 = 0.2765 | 594.28 | – | 570.04 | – | 548.29
90000 kPa, x2 = 0.5052 | 584.67 | 572.07 | 559.81 | 548.42 | 537.76
90000 kPa, x2 = 0.7468 | 573.12 | – | 548.28 | – | 525.87
100000 kPa, x2 = 0.2765 | 601.6 | – | 578.09 | – | 557.44
100000 kPa, x2 = 0.5052 | 592.18 | 579.89 | 568.28 | 557.24 | 547.21
100000 kPa, x2 = 0.7468 | 580.81 | – | 557.19 | – | 535.38
120000 kPa, x2 = 0.2765 | 614.72 | – | 592.86 | – | 573.52
120000 kPa, x2 = 0.5052 | 605.4 | 593.88 | 583.05 | 572.89 | 563.63
120000 kPa, x2 = 0.7468 | 594.3 | – | 571.88 | – | 552.06
140000 kPa, x2 = 0.2765 | 626.08 | – | 605.66 | – | 587.48
140000 kPa, x2 = 0.5052 | 617.13 | 606.29 | 595.97 | 586.39 | 577.64
140000 kPa, x2 = 0.7468 | 606.32 | – | 584.98 | – | 566.38
160000 kPa, x2 = 0.2765 | 636.59 | – | 616.77 | – | 599.81
160000 kPa, x2 = 0.5052 | 627.68 | 617.17 | 607.43 | 598.41 | 590.03
160000 kPa, x2 = 0.7468 | 616.85 | – | 596.72 | – | 579.07
180000 kPa, x2 = 0.2765 | 645.76 | – | 626.93 | – | 610.74
180000 kPa, x2 = 0.5052 | 637.18 | 627.17 | 617.7 | 609.2 | 601.17
180000 kPa, x2 = 0.7468 | 626.62 | – | 606.99 | – | 590.35
200000 kPa, x2 = 0.2765 | 654.56 | – | 636.12 | – | 620.79
200000 kPa, x2 = 0.5052 | 645.89 | 636.19 | 627.01 | 619.16 | 611.27
200000 kPa, x2 = 0.7468 | 635.27 | – | 616.65 | – | 600.48
